Data from patent US20230346827A1 (priority 2020, published 2023).

Tests used:
[1] = in vivo; cited from earlier work
[2] = target: T1, oligomeric amyloid-β / PrP^c interaction (Homo sapiens, UniProt P04156); type: binding
[3] = target: T1, oligomeric amyloid-β / PrP^c interaction; settings: cited from earlier work
human purified monocytes = assay: Stimulated IL-6 release from human purified monocytes (ELISA); type: cell-based; settings: 24 h, LMW-DS 60-600 µg/ml, heparin 2.0-20 µg/ml, dexamethasone 3.0 µM
Experimental: Peripheral blood mononuclear cells (PBMC) were isolated from healthy donors through Ficoll-Paque PLUS (GE Healthcare; 11778538) density centrifugation. Monocytes were purified using the EasySep™ human monocyte enrichment kit (StemCell) that purifies monocytes ‘untouched’ to maintain their phenotype.
Monocytes were cultured in the absence (unstimulated PBS vehicle controls) or presence of stimulation (LPS or peptidoglycan) in the absence (vehicle) or presence of LMW-DS (Tikomed AB, Viken, Sweden, WO 2016/076780; three concentrations; top concentration 600 µg/ml, 200 µg/ml and 60 µg/ml), heparin (2.0, 6.0 or 20 µg/ml; equivalent to 0.406, 1.218 and 4.06 units/ml; Sigma Aldrich) or dexamethasone (3.0 µM; Sigma Aldrich) for 24 hours at 37° C., 5% CO2. Following centrifugation, cell culture supernatants were removed and stored at -20° C. awaiting analysis for IL-6 by ELISA. Levels of IL-6 were quantified in the supernatant by ELISA (R&D systems) according to manufacturer’s instructions.

[4] = test system: mouse model of muscle atrophy; settings: after 2 weeks of treatment; cited from earlier work

Substance: adalimumab
- half-life [1]: around 14 days

Substance: certolizumab
- half-life [1]: around 14 days

Substance: dextran
- competition for the protein-protein interaction between oligomeric amyloid-β and PrP^c [2]: failed to compete appreciably

Substance: dextran sulphate sodium salt [DSSS]
- Competable binding (%) [2]: 101±2%
- Hill coefficient [2]: 1.51±0.06
- IC50 [2]: 0.62 ± 0.07 µg/mL
- effective concentrations to compete with the amyloid-β / PrP^c interaction [3]: low µg/ml range

Substance: heparin [reference compound]
- LPS-stimulated IL-6 release (human purified monocytes; LPS 0.01 ng/ml): concentration dependent statistically significant enhancement
- peptidoglycan-stimulated IL-6 release (human purified monocytes; peptidoglycan 30 ng/ml): did not reach statistical significance

Substance: infliximab
- half-life [1]: around 14 days

Substance: recombinant HGF: recombinant hepatocyte growth factor
- increase in muscle mass [4]: 18%
